Values of other authors in patent US7777053B2, “Efficient process for production of carvedilol phosphate” (Wanbury Limited, priority 2007, dated 2010).
Structures can show the parent of a compound that is named as a salt. Where two headings read alike, the source gives them in different places.

Row | solubility (neutral or alkaline media, above pH of 9.0) | saturation solubility (pH=5, room temperature) | saturation solubility (pH=7, room temperature) | aqueous solubility (as described in US 2005/0277689 A1, compared with carvedilol) | SMILES
1 | < 1 µg/mL | about 100 μg/ml | about 23 μg/ml | – | COc1ccccc1OCCNCC(O)COc1cccc2[nH]c3ccccc3c12 (stereo not shown) [Carvedilol, 1-(9H-carbazol-4yloxy)-3-[[2-(2-methoxyphenoxy)-ethyl]amino]-propan-2-ol]
2 | – | – | – | much higher aqueous solubility | COc1ccccc1OCCNCC(O)COc1cccc2[nH]c3ccccc3c12 (stereo not shown) [carvedilol phosphate, phosphate salts of 1-(9H-carbazol-4yloxy)-3-[[2-(2-methoxyphenoxy)ethyl]amino]-propan-2-ol]
